# Test results taken from patent publication US6262064A, “Octahydrobenzo[f]quinoline-based receptor agonists and antagonists” (priority 1999, dated 2001).
# Read-outs that look alike come from different tables or passages of the source.
# Legend:
# 5HT2 serotonin receptor = molecular target: T1, 5HT2 serotonin receptor (Rattus norvegicus, UniProt P14842); test: Serotonin (5HT2) binding assay ([3H]Ketanserin)
# T1 construct: rat cortical membranes; from tissue; host or cells: rat cortex membranes
# Experimental: The final ligand concentration was 1.0 nM.
# D2 dopamine receptor = molecular target: T2, D2 dopamine receptor (Rattus norvegicus, UniProt P61169); test: Dopamine D2 binding assay ([3H]Sulpiride); details: for dopamine receptor binding affinity / selectivity for the D2 over the D1 dopamine receptor: in words
# T2 construct: rat striatal membranes; from tissue; host or cells: rat striatum membranes
# Experimental: The final ligand concentration was 0.5 nM.
# [1] = test system: alpha1-adrenergic receptor; details: for α1 receptor binding affinity: in words
# Experimental: In these assays, the binding reaction was initiated by the addition of varying concentrations of the potential binding composition and a radioligand to an appropriate tissue. The assay was then incubated to allow binding. Binding was then terminated by dilution of the assay with a cold buffer, followed by rapid vacuum filtration onto Whatman GI/C filters that were presoaked in 0.1% polyethylene imine for at least 3 hours. Radioactivity trapped onto the filters was determined and compared to control values in order to ascertain any interactions of test compounds with the binding sites. Binding affinity analyses were performed by Novascreen, Division of the Adheron Corporation, Hanover, Md.
# Incubation was conducted in 50 mM TRIS-HCl (pH 7.7) at 25° C. for 60 minutes. […] The final ligand concentration was 0.5 nm.
# [2] = molecular target: alpha2-adrenergic receptor; test: Alpha2-adrenergic (non-selective) binding assay ([3H]RX 781094); parameters: species or system rat; details: for α2 receptor binding affinity: in words
# D2 receptor = molecular target: T3, D2 receptor (Rattus norvegicus, UniProt P61169); test: D2 receptor agonist evaluation (membrane binding with and without Gpp(NH)p); details: for D2 agonist/antagonist assessment / effect of GTP on D2 receptor binding: in words
# T3 construct: expressed in transfected cells
# Experimental: To determine the D2, D3 or D4 receptor selectivity, competition binding assays were performed using membranes from fibroblast cell lines transfected with D2444 (rat), D3 (human) or D4 (rat) receptors. All cell lines were maintained in Dulbecco's modified Eagle's media (DMEM) supplemented with 10 % fetal bovine serum at 37° C. with 5% CO2. Transfected cells were maintained in DMEM containing 300 μg/mL of the antibiotic G418 (Gibco).
# To determine whether or not compounds of this invention were D2 receptor agonists, a membrane binding assay, utilizing the D2 cell line described in Example 26, was performed in the presence and absence of the non-hydrolyzable guanine nucleotide (GTP analogue) Gpp(NH)p.
# 5HT1 serotonin receptor = test: Serotonin (5HT1) binding assay
# Experimental: In these assays, the binding reaction was initiated by the addition of varying concentrations of the potential binding composition and a radioligand to an appropriate tissue. The assay was then incubated to allow binding. Binding was then terminated by dilution of the assay with a cold buffer, followed by rapid vacuum filtration onto Whatman GI/C filters that were presoaked in 0.1% polyethylene imine for at least 3 hours. Radioactivity trapped onto the filters was determined and compared to control values in order to ascertain any interactions of test compounds with the binding sites.
# Incubation was conducted in 50 mM TRIS-HCl (pH 7.4) at 45 minutes for 37° C. The radioligand used was [^3 H]Hydroxytryptamine binoxalate (15-30 Ci/mmol). The final ligand concentration was 3.0 nM.
# D1 dopamine receptor = molecular target: T4, D1 dopamine receptor (Rattus norvegicus, UniProt P18901); test: Dopamine D1 binding assay ([3H]SCH 23390); details: Table III; rat striatal membranes; read-out: D1 receptor binding affinity Ki
# T4 construct: rat striatal membranes; from tissue; host or cells: rat striatum membranes
# Experimental: The final radioligand concentration was 0.5 nM.
# 5HT1A serotonin receptor = molecular target: T5, 5HT1A serotonin receptor (Bos taurus, UniProt F6Q2H9); test: Serotonin (5HT1A) binding assay ([3H]-8-OH-DPAT); parameters: species or system bovine; details: for 5HT1A serotonin receptor binding affinity: in words
# T5 construct: bovine hippocampus; from tissue; host or cells: bovine hippocampus
# T5 sequence (F6Q2H9 1-422): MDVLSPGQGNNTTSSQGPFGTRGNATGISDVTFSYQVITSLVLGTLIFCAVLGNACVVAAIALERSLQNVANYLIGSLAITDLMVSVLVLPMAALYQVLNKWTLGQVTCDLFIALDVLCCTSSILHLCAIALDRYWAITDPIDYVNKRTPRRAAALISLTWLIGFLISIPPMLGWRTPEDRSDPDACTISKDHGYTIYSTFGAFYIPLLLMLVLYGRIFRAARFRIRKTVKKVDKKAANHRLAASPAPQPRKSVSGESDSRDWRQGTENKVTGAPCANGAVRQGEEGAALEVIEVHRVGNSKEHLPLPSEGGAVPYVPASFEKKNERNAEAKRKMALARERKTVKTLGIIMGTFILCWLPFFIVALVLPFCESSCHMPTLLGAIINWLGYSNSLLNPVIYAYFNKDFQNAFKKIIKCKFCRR
# beta-adrenergic receptor = test: Beta-adrenergic (non-selective) binding assay ([3H]DHA); parameters: species or system rat
# 5HT3 serotonin receptor = test: Serotonin (5HT3) binding assay ([3H]GR65630, NIE-115 neuroblastoma cells)
# Experimental: The binding affinities of the compositions of this invention were assayed for various receptors. In these assays, the binding reaction was initiated by the addition of varying concentrations of the potential binding composition and a radioligand to an appropriate tissue. The assay was then incubated to allow binding. Binding was then terminated by dilution of the assay with a cold buffer, followed by rapid vacuum filtration onto Whatman GI/C filters that were presoaked in 0.1% polyethylene imine for at least 3 hours. Radioactivity trapped onto the filters was determined and compared to control values in order to ascertain any interactions of test compounds with the binding sites.
# Incubation was conducted in 20 mM HEPES (pH 7.4) containing 150 mM NaCl at 25° C. for 30 minutes. The radioligand used was [^3 H]GR65630 (30-50 Ci/mmol). The final ligand concentration was 0.7 nM.
# [3] = read-out: α1 receptor binding affinity Ki, Table III, rat forebrain membranes
# [4] = Table III, rat cortical membranes, read-out: α2 receptor binding affinity Ki
# [5] = Table XV, with Gpp(NH)p, read-out: D2 receptor binding Ki with Gpp(NH)p
# [6] = read-out: 5-HT1 receptor binding affinity Ki, Table III, rat cortical membranes
# [7] = 5-HT2 receptor binding affinity Ki
# [8] = Table III, bovine hippocampus, read-out: 5-HT1A receptor binding affinity Ki
# [9] = 5-HT1A receptor binding affinity Ki, Table III, bovine hippocampus
# [10] = Table III, rat striatal membranes, read-out: D2 receptor binding affinity Ki
# [11] = read-out: Ki of reference compounds, 5HT1, Table VII
# [12] = Table VIII, read-out: Ki of reference compounds, 5HT1A
# [13] = Table VI, read-out: Ki of reference compounds, beta-adrenergic
# [14] = Table V, read-out: Ki of reference compounds, alpha2-adrenergic
# [15] = read-out: Ki of reference compounds, 5HT3, Table X
# T3 sequence (P61169 whole entry): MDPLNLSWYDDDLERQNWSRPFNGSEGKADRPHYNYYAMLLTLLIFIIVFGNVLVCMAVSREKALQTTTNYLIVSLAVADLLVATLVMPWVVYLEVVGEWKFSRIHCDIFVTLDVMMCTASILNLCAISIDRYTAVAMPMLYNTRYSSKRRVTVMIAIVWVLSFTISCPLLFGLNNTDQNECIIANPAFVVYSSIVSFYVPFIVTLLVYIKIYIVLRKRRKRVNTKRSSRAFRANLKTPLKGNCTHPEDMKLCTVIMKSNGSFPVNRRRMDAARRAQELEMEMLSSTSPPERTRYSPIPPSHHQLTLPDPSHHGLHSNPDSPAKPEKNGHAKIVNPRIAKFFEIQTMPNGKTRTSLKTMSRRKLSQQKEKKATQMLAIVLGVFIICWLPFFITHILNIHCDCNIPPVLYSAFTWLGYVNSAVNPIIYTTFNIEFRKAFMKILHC
# T2 sequence (P61169 whole entry): as above
# T1 sequence (P14842 whole entry): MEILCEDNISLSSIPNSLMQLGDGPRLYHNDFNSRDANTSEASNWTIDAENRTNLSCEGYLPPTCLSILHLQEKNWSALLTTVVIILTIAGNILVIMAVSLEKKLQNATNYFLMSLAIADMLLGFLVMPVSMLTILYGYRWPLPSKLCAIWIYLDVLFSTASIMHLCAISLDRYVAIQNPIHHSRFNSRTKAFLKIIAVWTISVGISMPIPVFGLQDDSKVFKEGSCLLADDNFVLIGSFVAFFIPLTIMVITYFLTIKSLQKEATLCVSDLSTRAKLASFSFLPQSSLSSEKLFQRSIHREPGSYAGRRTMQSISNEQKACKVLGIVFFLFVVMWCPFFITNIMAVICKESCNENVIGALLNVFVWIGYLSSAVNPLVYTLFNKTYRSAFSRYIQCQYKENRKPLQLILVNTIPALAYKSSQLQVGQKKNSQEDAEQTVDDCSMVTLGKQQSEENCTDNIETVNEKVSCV
# T4 sequence (P18901 whole entry): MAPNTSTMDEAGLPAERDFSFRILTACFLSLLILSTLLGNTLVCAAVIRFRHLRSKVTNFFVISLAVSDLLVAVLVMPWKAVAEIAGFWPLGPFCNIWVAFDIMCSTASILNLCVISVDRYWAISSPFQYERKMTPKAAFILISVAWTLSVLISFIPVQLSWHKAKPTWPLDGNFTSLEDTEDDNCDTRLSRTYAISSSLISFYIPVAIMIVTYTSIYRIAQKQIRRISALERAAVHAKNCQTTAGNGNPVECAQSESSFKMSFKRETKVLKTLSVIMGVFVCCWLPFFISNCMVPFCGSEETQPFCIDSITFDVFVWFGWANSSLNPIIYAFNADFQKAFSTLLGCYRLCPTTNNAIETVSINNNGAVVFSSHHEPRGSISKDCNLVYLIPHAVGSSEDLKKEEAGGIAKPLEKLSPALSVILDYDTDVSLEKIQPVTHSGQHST
smiles,measurement,setting,value
Oc1ccc2c(c1O)CC[C@@H]1[C@@H]2CCCN1CCc1cccs1 (relative stereo) [(-)-trans-33],5HT2 serotonin receptor binding affinity,5HT2 serotonin receptor,high binding affinities for the 5HT2 serotonin receptor
"Oc1cccc2c1CC[C@H]1[C@@H]2CCCN1CCc1ccccc1 (relative stereo) [cis-25, Cis-7-hydroxy-4-phenethyl-1,2,3,4,4a,5,6,10b-octahydrobenzo[f]quinoline]",Ki,D2 dopamine receptor,6.6 nM
same,dopamine receptor binding affinity,D2 dopamine receptor,good dopamine receptor binding affinities
same,selectivity for the D2 over the D1 dopamine receptor,D2 dopamine receptor,highly selective for the D2 dopamine receptor over the D1 dopamine receptor
same,α1 receptor binding affinity,[1],high binding affinities for the α1 receptor
same,Ki,[1]; [3],16 nM
same,Ki,[2]; [4],0.27 nM
same,α2 receptor binding affinity,[2],high binding affinities for the α2 receptor
same,Ratio of +:- Gpp(NH)p,D2 receptor; Table XV,1.07
same,Ki,D2 receptor; [5],176 ± 213 nM
same,Ki,"D2 receptor; Table XV, without Gpp(NH)p, read-out: D2 receptor binding Ki without Gpp(NH)p",164 ± 51 nM
same,D2 agonist/antagonist assessment,D2 receptor,appear to be an antagonist
same,effect of GTP on D2 receptor binding,D2 receptor,the addition of GTP did not significantly affect receptor binding affinity
"Oc1cccc2c1CC[C@H]1[C@H]2CCCN1CCc1ccccc1 (relative stereo) [trans-25, Trans-7-hydroxy-4-phenethyl-1,2,3,4,4a,5,6,10b-octahydrobenzo[f]quinoline]",Ki,5HT1 serotonin receptor; [6],470 nM
same,Ki,D2 dopamine receptor,0.87 nM
same,dopamine receptor binding affinity,D2 dopamine receptor,good dopamine receptor binding affinities
same,selectivity for the D2 over the D1 dopamine receptor,D2 dopamine receptor,highly selective for the D2 dopamine receptor over the D1 dopamine receptor
same,α1 receptor binding affinity,[1],high binding affinities for the α1 receptor
same,Ki,[1]; [3],4.5 nM
same,Ki,[2]; [4],0.22 nM
same,α2 receptor binding affinity,[2],high binding affinities for the α2 receptor
same,Ki,D1 dopamine receptor,5100 nM
same,5HT2 serotonin receptor binding affinity,5HT2 serotonin receptor,high binding affinities for the 5HT2 serotonin receptor
same,Ki,5HT2 serotonin receptor; [7],27 nM
same,Ki,D2 receptor,37 ± 9 nM
same,Ratio of +:- Gpp(NH)p,D2 receptor; Table XV,34.7
same,Ki,D2 receptor; [5],1270 ± 1640 nM
same,D2 agonist/antagonist assessment,D2 receptor,appear to be agonists
same,effect of GTP on D2 receptor binding,D2 receptor,D2 receptor binding was enhanced by the addition of GTP
Oc1cccc2c1CC[C@@H]1[C@@H]2CCCN1CCc1cccs1 (relative stereo) [trans-31],Ki,5HT1A serotonin receptor; [8],36 nM
same,5HT1A serotonin receptor binding affinity,5HT1A serotonin receptor,high binding affinities for the 5HT1A serotonin receptor
same,Ki,D2 dopamine receptor,1.9 nM
same,dopamine receptor binding affinity,D2 dopamine receptor,good dopamine receptor binding affinities
same,selectivity for the D2 over the D1 dopamine receptor,D2 dopamine receptor,highly selective for the D2 dopamine receptor over the D1 dopamine receptor
same,α1 receptor binding affinity,[1],high binding affinities for the α1 receptor
same,Ki,[1]; [3],17 nM
same,Ki,[2]; [4],7.2 nM
same,α2 receptor binding affinity,[2],high binding affinities for the α2 receptor
same,Ki,5HT2 serotonin receptor,80 nM
same,5HT2 serotonin receptor binding affinity,5HT2 serotonin receptor; in words,high binding affinities for the 5HT2 serotonin receptor
Oc1ccc2c(c1O)CC[C@@H]1[C@@H]2CCCN1CCc1cccs1 (relative stereo) [trans-33],Ki,5HT1A serotonin receptor; [8],190 nM
same,5HT1A serotonin receptor binding affinity,5HT1A serotonin receptor,high binding affinities for the 5HT1A serotonin receptor
same,Ki,5HT1 serotonin receptor; [6],1800 nM
same,Ki,D2 dopamine receptor,57 nM
same,dopamine receptor binding affinity,D2 dopamine receptor,good dopamine receptor binding affinities
same,selectivity for the D2 over the D1 dopamine receptor,D2 dopamine receptor,highly selective for the D2 dopamine receptor over the D1 dopamine receptor
same,Ki,[1]; [3],180 nM
same,Ki,[2]; [4],19 nM
same,α2 receptor binding affinity,[2],high binding affinities for the α2 receptor
same,Ki,5HT2 serotonin receptor,100 nM
"Oc1ccc2c(c1O)CC[C@@H]1[C@H]2CCCN1CCc1ccccc1 (single isomer, unassigned) [cis-(-)-9]",Ki,D2 dopamine receptor,54 nM
same,dopamine receptor binding affinity,D2 dopamine receptor,good dopamine receptor binding affinities
same,selectivity for the D2 over the D1 dopamine receptor,D2 dopamine receptor,highly selective for the D2 dopamine receptor over the D1 dopamine receptor
same,Ki,[1]; [3],180 nM
same,Ki,[2]; [4],74 nM
same,α2 receptor binding affinity,[2],high binding affinities for the α2 receptor
"Oc1ccc2c(c1O)CC[C@H]1[C@H]2CCCN1CCc1ccccc1 (single isomer, unassigned) [trans-(+)-9, Trans-(+)7,8-dihydroxy-4-phenethyl-1,2,3,4,4a,5,6, 10b-octahydrobenzo[f]quinoline]",Ki,5HT1A serotonin receptor; [9],910 nM
same,Ki,D2 dopamine receptor; [10],2500 nM
same,α1 receptor binding affinity,[1],high binding affinities for the α1 receptor
same,Ki,[1]; [3],53 nM
same,Ki,[2]; [4],550 nM
"Oc1cccc2c1CC[C@@H]1[C@@H]2CCCN1CCc1ccccc1 (single isomer, unassigned) [trans-(+)-25]",Ki,5HT1A serotonin receptor; [9],410 nM
same,Ki,D2 dopamine receptor; [10],400 nM
same,α1 receptor binding affinity,[1],high binding affinities for the α1 receptor
same,Ki,[1]; [3],5.5 nM
same,Ki,[2]; [4],440 nM
same,5HT2 serotonin receptor binding affinity,5HT2 serotonin receptor,high binding affinities for the 5HT2 serotonin receptor
same,Ki,5HT2 serotonin receptor; [7],9.5 nM
"Oc1ccc2c(c1O)CC[C@H]1[C@H]2CCCN1CCc1ccccc1 (single isomer, unassigned) [trans-(-)-9, Trans-(-)-7,8-Dihydroxy-4-phenethyl-1,2,3,4,4a,5,6, 10b-octahydrobenzo[f]quinoline]",Ki,5HT1A serotonin receptor; [9],67 nM
same,5HT1A serotonin receptor binding affinity,5HT1A serotonin receptor,high binding affinities for the 5HT1A serotonin receptor
same,Ki,5HT1 serotonin receptor; [6],3300 nM
same,Ki,D2 dopamine receptor,0.38 nM
same,dopamine receptor binding affinity,D2 dopamine receptor,good dopamine receptor binding affinities
same,selectivity for the D2 over the D1 dopamine receptor,D2 dopamine receptor,highly selective for the D2 dopamine receptor over the D1 dopamine receptor
same,Ki,[1]; [3],130 nM
same,Ki,[2]; [4],9 nM
same,α2 receptor binding affinity,[2],high binding affinities for the α2 receptor
same,Ki,D1 dopamine receptor,3500 nM
same,Ki,5HT2 serotonin receptor,26 nM
same,5HT2 serotonin receptor binding affinity,5HT2 serotonin receptor; in words,high binding affinities for the 5HT2 serotonin receptor
"COc1ccc2[nH]cc(CCN)c2c1 [5-Methoxytryptamine, reference compound]",Ki,5HT1 serotonin receptor; [11],45.8 nM
"CCCN(CCC)C1CCc2cccc(O)c2C1 (stereo not drawn) [8-OH-DPAT, reference compound]",Ki,"5HT1A serotonin receptor; Ki characterizing the 5HT1A assay, assay characterization",2 nM
same,Ki,5HT1A serotonin receptor; [12],1.4 nM
CC(C)(C)NCC(O)c1ccc(O)c(CO)c1 (stereo not drawn) [Albuterol],Ki,beta-adrenergic receptor; [13],2880 nM
C=CCc1ccccc1OCC(O)CNC(C)C (stereo not drawn) [Alprenolol],Ki,beta-adrenergic receptor; [13],3.5 nM
same,Ki,"beta-adrenergic receptor; assay characterization, read-out: Ki characterizing the beta assay",1.74 nM
"Clc1cccc(Cl)c1N=C1NCCN1 [Clonidine, reference compound]",Ki,[2]; [14],14 nM
"O=C(c1ccc(F)cc1)C1CCN(CCn2c(=O)[nH]c3ccccc3c2=O)CC1 [Ketanserin, reference compound]",Ki,5HT1A serotonin receptor; [12],> 10000 nM
CN1[C@@H]2CC[C@H]1C[C@@H](OC(=O)c1cc(Cl)cc(Cl)c1)C2 [MDL-72222],Ki,"5HT3 serotonin receptor; read-out: Ki characterizing the 5HT3 assay, assay characterization",0.3 nM
same,Ki,5HT3 serotonin receptor; [15],7.2 nM
CCN(CC)CCNC(=O)c1cc(Cl)c(N)cc1OC [Metoclopramide],Ki,5HT3 serotonin receptor; [15],191 nM
COCCc1ccc(OCC(O)CNC(C)C)cc1 (stereo not drawn) [Metoprotol],Ki,beta-adrenergic receptor; [13],45 nM
"Cc1ccc(N(CC2=NCCN2)c2cccc(O)c2)cc1 [Phentolamine, reference compound]",Ki,[2]; [14],1.7 nM
CC(C)NCC(O)COc1cccc2[nH]ccc12 (stereo not drawn) [Pindolol],Ki,beta-adrenergic receptor; [13],1.1 nM
c1ccc2nc(N3CCNCC3)ccc2c1 [Quipazin],Ki,5HT3 serotonin receptor; [15],1.5 nM
"NCCc1c[nH]c2ccc(O)cc12 [Serotonin, reference compound]",Ki,"5HT1 serotonin receptor; read-out: Ki characterizing the 5HT1 assay, assay characterization",2.8 nM
same,Ki,5HT1 serotonin receptor; [11],4.6 nM
same,Ki,5HT3 serotonin receptor; [15],18.7 nM
"COc1cccc(OC)c1OCCNCC1COc2ccccc2O1 (stereo not drawn) [WB4101, reference compound]",Ki,"[1]; read-out: Ki of reference compounds, alpha1-adrenergic, Table IV",2.6 nM
